Values of other authors in patent publication US8546362B2, “Medicinal cream made using neomycin sulphate, betamethasone valerate, and chitosan, and a process to make the same” (priority 2009, dated 2013).
Read-outs that look alike come from different tables or passages of the source.

How the values were obtained:
[1] = tested on: indole-positive and indole-negative Proteus; conditions: in vitro
Haemophilus influenzae = conditions: in vitro
Staphylococcus aureus = conditions: in vitro
S. epidermidis = conditions: in vitro
[2] = from the peritoneum, draining sinuses, wounds, or surgical sites
Moraxella lacunata = conditions: in vitro
Escherichia coli = conditions: in vitro
Serratia = conditions: in vitro

Solubility (in acetone) | Solubility (in benzene) | Solubility (in chloroform) | Solubility (in ether) | Compound | Solubility (in alcohol) | Solubility (in water) | Concentrations that inhibit most susceptible strains [1] [µg/mL] | Antimicrobial activity (fungi) | Concentrations that inhibit most susceptible strains (Haemophilus influenzae) [µg/mL] | Antibacterial activity (streptococci) | Concentrations that inhibit most susceptible strains (Staphylococcus aureus) [µg/mL] | Concentrations that inhibit most susceptible strains (S. epidermidis) [µg/mL] | Absorption [2] | Concentrations that inhibit most susceptible strains (Moraxella lacunata) [µg/mL] | Antimicrobial activity (most anaerobic bacteria) | Concentrations that inhibit most susceptible strains (Escherichia coli) [µg/mL] | Antibacterial activity (Pseudomonas aeruginosa) | Antimicrobial activity (viruses) | Concentrations that inhibit most susceptible strains (Serratia) [µg/mL]
freely soluble | slightly soluble | freely soluble | slightly soluble | CCCCC(=O)O[C@]1(C(=O)CO)[C@@H](C)C[C@H]2[C@@H]3CCC4=CC(=O)C=C[C@]4(C)[C@@]3(F)[C@@H](O)C[C@@]21C [Betamethasone Valerate, 9-Fluoro-11β, 17,21-trihydroxy-16β-methylpregna-1,4-diene-3,20-dione 17-valerate] | soluble | practically insoluble |  |  |  |  |  |  |  |  |  |  |  |  | 
 |  |  |  | NC[C@@H]1O[C@H](O[C@H]2[C@@H](O)[C@H](O[C@@H]3[C@@H](O)[C@H](N)C[C@H](N)[C@H]3O[C@H]3O[C@H](CN)[C@@H](O)[C@H](O)[C@H]3N)O[C@@H]2CO)[C@H](N)[C@@H](O)[C@@H]1O [Neomycin] | very slightly soluble | freely soluble | 1 to 12.5 | inactive | 1 to 12.5 | only minimally active | 1 to 12.5 | 1 to 12.5 | rapidly absorbed | 1 to 12.5 | inactive | 1 to 12.5 | generally resistant | inactive | 1 to 12.5
